Measured values from ChEMBL document CHEMBL4257223, “Histone demethylase inhibitors” (2016).

What was measured:
[1] = target: T1, Lysine-specific demethylase 2B (Homo sapiens, UniProt Q8NHM5); test: Inhibition of recombinant human C-terminal FLAG-tagged FBXL10 (1 to 650 residues) expressed in baculovirus infected sf9 cells using H3K36me2-biotin peptide as substrate after 30 mins in presence of alpha-ketoglutaric acid by AlphaScreen assay
T1 sequence (Q8NHM5 whole entry): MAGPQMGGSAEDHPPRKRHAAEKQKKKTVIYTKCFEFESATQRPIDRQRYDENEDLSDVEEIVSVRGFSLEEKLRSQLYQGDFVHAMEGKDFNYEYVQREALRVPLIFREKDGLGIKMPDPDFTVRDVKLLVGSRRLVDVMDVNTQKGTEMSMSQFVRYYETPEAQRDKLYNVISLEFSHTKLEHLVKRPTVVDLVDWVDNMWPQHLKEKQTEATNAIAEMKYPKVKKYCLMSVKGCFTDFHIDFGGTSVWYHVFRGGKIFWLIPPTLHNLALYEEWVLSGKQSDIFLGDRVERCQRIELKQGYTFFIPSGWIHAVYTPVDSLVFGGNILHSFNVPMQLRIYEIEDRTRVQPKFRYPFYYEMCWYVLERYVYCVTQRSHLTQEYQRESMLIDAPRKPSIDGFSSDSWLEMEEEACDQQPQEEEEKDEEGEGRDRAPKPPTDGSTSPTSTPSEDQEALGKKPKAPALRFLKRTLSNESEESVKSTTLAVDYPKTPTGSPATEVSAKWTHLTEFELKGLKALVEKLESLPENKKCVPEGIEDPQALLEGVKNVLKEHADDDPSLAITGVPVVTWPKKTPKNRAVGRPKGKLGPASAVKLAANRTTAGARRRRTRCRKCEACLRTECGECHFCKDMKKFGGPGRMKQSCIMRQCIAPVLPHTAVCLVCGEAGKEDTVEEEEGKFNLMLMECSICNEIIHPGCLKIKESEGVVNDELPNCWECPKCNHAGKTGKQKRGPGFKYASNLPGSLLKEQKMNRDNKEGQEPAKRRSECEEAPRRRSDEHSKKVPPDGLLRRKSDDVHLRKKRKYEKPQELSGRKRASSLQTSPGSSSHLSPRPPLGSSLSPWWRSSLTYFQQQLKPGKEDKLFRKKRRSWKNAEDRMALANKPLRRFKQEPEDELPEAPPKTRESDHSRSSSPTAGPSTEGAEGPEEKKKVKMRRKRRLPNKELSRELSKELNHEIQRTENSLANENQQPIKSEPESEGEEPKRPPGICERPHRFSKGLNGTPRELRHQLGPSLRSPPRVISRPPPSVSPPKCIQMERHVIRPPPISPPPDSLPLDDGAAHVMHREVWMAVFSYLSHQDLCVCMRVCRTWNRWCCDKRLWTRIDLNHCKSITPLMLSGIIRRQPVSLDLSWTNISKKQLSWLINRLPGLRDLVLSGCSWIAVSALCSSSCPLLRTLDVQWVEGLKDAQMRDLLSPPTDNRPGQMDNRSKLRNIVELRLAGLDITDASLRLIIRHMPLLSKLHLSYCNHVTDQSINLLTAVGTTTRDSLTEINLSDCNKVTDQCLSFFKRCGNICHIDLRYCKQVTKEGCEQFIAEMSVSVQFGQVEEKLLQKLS

[2] = target: T2, Lysine-specific demethylase 4C (Homo sapiens, UniProt Q9H3R0); test: Inhibition of recombinant human N-terminal GST-tagged JMJD2C (2 to 372 residues) expressed in baculovirus infected sf9 cells using H3K9me3-biotin peptide as substrate after 30 mins in presence of alpha-ketoglutaric acid by LANCE TR-FRET assay
T2 sequence (Q9H3R0 whole entry): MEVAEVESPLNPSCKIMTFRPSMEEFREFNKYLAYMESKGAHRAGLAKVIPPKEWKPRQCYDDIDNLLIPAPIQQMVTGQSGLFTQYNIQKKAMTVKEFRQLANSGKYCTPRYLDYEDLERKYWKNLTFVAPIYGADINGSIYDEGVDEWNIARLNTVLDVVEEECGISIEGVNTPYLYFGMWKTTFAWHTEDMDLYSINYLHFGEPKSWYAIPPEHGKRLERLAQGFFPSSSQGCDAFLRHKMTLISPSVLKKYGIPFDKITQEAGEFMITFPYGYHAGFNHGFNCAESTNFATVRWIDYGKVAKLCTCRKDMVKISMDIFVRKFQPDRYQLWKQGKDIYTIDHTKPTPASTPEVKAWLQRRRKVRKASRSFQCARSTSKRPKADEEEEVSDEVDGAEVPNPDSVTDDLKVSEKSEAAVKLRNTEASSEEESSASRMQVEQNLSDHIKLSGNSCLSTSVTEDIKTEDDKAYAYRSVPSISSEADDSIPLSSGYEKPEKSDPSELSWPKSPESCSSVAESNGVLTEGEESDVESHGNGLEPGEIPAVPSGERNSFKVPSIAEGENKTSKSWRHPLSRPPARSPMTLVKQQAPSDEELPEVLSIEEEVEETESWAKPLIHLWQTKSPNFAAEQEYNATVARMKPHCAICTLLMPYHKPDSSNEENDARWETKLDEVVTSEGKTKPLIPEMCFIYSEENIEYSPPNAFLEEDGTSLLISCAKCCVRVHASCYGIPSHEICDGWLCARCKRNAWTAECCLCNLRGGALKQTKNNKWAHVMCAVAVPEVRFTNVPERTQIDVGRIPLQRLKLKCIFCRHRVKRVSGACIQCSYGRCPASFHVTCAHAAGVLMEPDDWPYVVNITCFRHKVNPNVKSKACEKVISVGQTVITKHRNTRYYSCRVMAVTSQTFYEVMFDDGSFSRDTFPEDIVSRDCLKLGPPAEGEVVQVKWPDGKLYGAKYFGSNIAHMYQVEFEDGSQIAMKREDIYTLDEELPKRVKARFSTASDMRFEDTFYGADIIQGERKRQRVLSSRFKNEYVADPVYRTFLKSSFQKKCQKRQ

[3] = target: Lysine-specific demethylase 5B (Homo sapiens, UniProt Q9UGL1); test: Inhibition of recombinant human N-terminal His-FLAG tagged JARID1B (2 to 751 residues) expressed in baculovirus infected sf9 cells using H3K4me3-biotin peptide as substrate after 30 mins in presence of alpha-ketoglutaric acid by LANCE TR-FRET assay
Lysine-specific demethylase 5B, sequence (Q9UGL1 whole entry, the tested form may be a part): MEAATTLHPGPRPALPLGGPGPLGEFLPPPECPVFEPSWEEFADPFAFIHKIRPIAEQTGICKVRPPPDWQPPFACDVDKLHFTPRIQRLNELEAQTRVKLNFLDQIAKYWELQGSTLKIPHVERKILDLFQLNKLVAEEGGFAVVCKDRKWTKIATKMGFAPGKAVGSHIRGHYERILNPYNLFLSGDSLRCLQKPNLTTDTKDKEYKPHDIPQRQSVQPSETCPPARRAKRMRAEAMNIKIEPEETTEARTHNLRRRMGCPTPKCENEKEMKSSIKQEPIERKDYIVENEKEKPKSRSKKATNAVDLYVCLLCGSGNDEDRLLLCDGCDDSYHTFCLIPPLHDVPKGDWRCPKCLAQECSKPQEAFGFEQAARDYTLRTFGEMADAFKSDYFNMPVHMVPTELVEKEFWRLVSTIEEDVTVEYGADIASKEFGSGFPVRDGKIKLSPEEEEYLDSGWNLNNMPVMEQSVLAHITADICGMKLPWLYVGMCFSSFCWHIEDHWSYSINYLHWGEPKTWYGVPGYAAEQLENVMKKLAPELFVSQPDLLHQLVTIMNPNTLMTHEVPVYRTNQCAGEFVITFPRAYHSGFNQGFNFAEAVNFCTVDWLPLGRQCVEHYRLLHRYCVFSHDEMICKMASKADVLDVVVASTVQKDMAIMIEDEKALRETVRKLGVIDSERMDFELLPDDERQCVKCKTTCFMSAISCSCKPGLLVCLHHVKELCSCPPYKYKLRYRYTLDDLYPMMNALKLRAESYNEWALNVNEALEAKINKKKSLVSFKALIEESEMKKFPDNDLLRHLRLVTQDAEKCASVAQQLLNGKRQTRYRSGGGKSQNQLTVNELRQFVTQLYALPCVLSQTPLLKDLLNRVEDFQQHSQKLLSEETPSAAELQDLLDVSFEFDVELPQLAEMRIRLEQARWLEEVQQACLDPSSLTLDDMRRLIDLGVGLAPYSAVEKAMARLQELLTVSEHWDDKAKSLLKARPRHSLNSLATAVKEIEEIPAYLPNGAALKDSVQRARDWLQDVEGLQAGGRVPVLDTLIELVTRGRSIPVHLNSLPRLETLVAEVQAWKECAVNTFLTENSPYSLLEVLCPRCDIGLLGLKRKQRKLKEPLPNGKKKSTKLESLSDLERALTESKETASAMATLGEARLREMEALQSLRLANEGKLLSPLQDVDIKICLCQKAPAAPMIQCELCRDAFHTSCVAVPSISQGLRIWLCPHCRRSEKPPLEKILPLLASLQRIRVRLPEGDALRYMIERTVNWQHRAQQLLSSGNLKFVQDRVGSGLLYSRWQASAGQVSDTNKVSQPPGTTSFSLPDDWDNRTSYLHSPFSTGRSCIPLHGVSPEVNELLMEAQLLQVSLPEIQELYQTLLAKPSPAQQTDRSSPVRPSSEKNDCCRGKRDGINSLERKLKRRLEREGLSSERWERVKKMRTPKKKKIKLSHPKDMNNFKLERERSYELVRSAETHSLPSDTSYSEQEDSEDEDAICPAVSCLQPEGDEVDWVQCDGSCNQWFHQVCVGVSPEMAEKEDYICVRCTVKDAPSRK

[4] = target: Lysine-specific demethylase 5A/5B (Homo sapiens, UniProt P29375+Q9UGL1); test: Inhibition of KDM5A/KDM5B in human ZR-75-1 cells assessed as increase in H3K4me3 level after 72 hrs by fluorometric immunoblot analysis; assay type: cell-based

Question: Which IC50 [1] does the source give for `COc1ccc(-c2c(-c3cc(C(=O)O)ccn3)ncn2C)cc1` here?
Answer: 0.1 to 1 µM

Question: What about the IC50 [2] of the same molecule?
Answer: 1 to 10 µM

Question: What about the IC50 [3] of the same molecule?
Answer: 0.1 to 1 µM

Question: And the IC50 [4]?
Answer: 1 to 10 µM
